The nature of series [1]: Half life in human. The format is ADME, organism-based. Particulars: in vivo.
The target of series [2] is Voltage-gated inwardly rectifying potassium channel KCNH2 (Homo sapiens, UniProt Q12809). The series is described as follows: Inhibition of human ERG channel overexpressed in Chinese hamster CHOK1 cells by whole cell voltage clamp assay. The format is cell-based, CHO-K1.
The target in series [3] is T1, Dihydroorotate dehydrogenase (Plasmodium falciparum, UniProt Q54A96).
T1 sequence (Q54A96 whole entry): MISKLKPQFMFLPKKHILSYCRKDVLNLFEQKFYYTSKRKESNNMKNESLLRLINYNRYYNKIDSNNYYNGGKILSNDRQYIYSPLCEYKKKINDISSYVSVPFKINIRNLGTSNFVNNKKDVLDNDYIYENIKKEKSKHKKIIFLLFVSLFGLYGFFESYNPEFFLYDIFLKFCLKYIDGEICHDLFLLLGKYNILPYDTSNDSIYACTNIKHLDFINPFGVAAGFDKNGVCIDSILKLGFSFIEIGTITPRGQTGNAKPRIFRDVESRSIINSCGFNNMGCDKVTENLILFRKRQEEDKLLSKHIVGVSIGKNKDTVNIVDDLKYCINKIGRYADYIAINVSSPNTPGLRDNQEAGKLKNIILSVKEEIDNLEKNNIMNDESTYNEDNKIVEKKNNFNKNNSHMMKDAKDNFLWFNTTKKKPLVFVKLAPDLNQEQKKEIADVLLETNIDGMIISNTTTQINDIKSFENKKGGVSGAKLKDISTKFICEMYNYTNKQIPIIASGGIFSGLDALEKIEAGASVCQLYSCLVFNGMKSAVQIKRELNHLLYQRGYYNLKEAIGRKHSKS
The series is described as follows: Inhibition of plasmodium falciparum DHODH assessed as inhibition of [14C]bicarbonate incorporation into pyrimidine nucleotide by HPLC analysis.

The target of series [4] is Dihydroorotate dehydrogenase (quinone), mitochondrial (Rattus norvegicus, UniProt Q63707). Briefly: Inhibition of rat purified recombinant DHODH.
Series [5] deals with T2, Dihydroorotate dehydrogenase (quinone), mitochondrial (Homo sapiens, UniProt Q02127). Briefly: Inhibition of human purified recombinant DHODH.
The target of series [6] is Dihydroorotate dehydrogenase (quinone), mitochondrial (Rattus norvegicus) (UniProt Q63707). Briefly: Competitive inhibition of rat purified recombinant DHODH in presence of cofactor ubiquinone.
Series [7] has as its target T2, Dihydroorotate dehydrogenase (quinone), mitochondrial. The series is described as follows: Competitive inhibition of human purified recombinant DHODH in presence of cofactor ubiquinone.

We go through 4 molecules from ChEMBL document CHEMBL2331175, “On dihydroorotate dehydrogenases and their inhibitors and uses” (J Med Chem, 2013).

Each structure is given as a SMILES string.

T2 sequence (Q02127 whole entry): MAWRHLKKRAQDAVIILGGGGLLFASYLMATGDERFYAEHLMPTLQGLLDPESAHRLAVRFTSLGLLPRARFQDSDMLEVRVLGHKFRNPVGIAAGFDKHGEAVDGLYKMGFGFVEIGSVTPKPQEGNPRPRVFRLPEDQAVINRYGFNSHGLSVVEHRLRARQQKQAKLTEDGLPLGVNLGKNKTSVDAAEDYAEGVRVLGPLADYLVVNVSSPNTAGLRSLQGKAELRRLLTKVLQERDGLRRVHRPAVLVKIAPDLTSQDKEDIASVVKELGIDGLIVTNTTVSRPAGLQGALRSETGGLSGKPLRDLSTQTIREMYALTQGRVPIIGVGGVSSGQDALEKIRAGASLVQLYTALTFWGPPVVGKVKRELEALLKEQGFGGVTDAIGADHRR
Sequence of Voltage-gated inwardly rectifying potassium channel KCNH2 (Q12809 whole entry): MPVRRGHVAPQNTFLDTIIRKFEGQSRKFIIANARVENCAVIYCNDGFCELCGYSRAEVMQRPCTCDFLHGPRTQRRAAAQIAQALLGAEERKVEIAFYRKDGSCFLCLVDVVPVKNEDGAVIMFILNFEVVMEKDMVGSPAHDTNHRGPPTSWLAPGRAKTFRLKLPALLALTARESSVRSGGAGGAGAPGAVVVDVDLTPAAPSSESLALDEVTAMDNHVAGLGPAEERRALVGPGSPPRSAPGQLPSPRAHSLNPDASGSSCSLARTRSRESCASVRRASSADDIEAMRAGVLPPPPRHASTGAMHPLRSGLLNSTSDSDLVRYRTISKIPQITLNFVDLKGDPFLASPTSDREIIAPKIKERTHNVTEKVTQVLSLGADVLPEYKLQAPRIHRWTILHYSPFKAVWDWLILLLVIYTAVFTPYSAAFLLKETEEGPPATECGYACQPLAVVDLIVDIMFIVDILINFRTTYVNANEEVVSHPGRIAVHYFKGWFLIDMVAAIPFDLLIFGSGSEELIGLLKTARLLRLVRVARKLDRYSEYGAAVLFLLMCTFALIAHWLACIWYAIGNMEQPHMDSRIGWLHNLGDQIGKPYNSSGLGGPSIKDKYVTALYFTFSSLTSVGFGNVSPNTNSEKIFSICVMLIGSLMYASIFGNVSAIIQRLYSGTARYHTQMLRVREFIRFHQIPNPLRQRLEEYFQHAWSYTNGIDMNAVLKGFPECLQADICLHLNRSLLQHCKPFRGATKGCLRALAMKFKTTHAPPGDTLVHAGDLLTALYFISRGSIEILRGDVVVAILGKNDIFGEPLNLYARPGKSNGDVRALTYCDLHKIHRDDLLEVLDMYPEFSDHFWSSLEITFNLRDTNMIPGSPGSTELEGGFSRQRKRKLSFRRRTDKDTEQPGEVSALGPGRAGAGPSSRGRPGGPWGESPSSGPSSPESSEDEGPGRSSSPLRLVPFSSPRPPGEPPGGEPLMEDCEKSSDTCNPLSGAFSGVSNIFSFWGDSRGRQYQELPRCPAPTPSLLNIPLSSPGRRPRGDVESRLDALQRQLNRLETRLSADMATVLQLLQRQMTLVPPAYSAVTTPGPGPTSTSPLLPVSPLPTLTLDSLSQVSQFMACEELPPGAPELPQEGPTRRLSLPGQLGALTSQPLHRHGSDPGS
Sequence of Dihydroorotate dehydrogenase (quinone), mitochondrial (Rattus norvegicus, UniProt Q63707) (Q63707 whole entry): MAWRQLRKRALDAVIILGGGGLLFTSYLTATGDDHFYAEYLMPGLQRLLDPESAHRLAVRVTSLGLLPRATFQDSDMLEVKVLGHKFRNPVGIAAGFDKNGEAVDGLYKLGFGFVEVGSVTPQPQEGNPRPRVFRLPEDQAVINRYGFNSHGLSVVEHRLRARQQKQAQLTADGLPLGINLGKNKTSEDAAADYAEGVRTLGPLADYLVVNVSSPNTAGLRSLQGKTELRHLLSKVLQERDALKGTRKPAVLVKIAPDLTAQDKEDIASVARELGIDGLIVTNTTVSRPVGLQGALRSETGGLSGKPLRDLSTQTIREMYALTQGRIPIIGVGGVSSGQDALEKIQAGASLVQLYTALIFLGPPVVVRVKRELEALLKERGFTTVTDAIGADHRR
Sequence of Dihydroorotate dehydrogenase (quinone), mitochondrial (Rattus norvegicus) (Q63707 whole entry): as above

`Cc1cc(NC(=O)/C(C#N)=C(\O)C2CC2)ccc1C(F)(F)F`: the half-life (as a rule, the time in which the quantity being followed falls by half) in series [1] was 210 min.

Regarding `Cc1nc2cc(OC(F)(F)F)ccc2n1-c1ccc(C(=O)NC2CC2)s1`, the IC50 (usually the concentration that gives 50% inhibition) in series [2] is less than 2800 nM.

As for `C/C(O)=C(\C#N)C(=O)Nc1ccc(C(F)(F)F)cc1` [TERIFLUNOMIDE], in series [1], the half-life was more than 20200 min.

For `O=C1C(O)=C([C@H]2CC[C@H](c3ccc(Cl)cc3)CC2)C(=O)c2ccccc21` [ATOVAQUONE], the Ki – broadly, the dissociation constant of the complex between target and ligand, obtained from inhibition or displacement – in series [3] was 27 µM. The values for the IC50 in series [4] and in series [5] were 700 nM and 14.5 µM, respectively. Moreover, the Kic in series [6] worked out at 60 nM; in series [7], 2.7 µM.
